Experiment: Toxicity evaluation, plasma AST and ALT after subcutaneous injection
Format: in vivo, C57BL/6 mouse
Settings: 25 μg resiquimod, over time, FIG. 6
Procedure: To evaluate the toxicity of a live pathogen-mimetic nano-molecule, a live pathogen-mimetic nano-molecule, a CWS-nanodispersion, resiquimod (R848; free drug), or a mixture of a CWS-nanodispersion and resiquimod (R848; free drug), which was added to a 50 μL of phosphate buffered saline (PBS) to have a resiquimod concentration of 25 μg, was subcutaneously injected into the right flank of a C57BL/6 mouse. Then, blood was extracted from the mouse at fixed time intervals and centrifuged at 12,000 rpm to isolate plasma. Then, the concentrations of aspartate transaminase (AST) and alanine transaminase (ALT) contained in the isolated plasma were measured using ELISA.

With `CCOCc1nc2c(N)nc3ccccc3c2n1CC(C)(C)O` [resiquimod] the “plasma ALT concentration (hepatotoxicity indicator)” value was “initially increased” and the “plasma AST concentration (hepatotoxicity indicator)” value was “initially increased”.
